Experimental data published in patent US5506217A, “Phosphonates as anti-cancer agents” (The University of British Columbia, priority 1994, dated 1996).

Tests used:
[1] = test system: DHL4, a human B cell lymphoma; experiment: colonogenic cell survival assay; assay type: cell-based; settings: 120 h, read-out: Colonies formed after 5-days (% of control)
Protocol: Inhibition of colony formation in soft agar medium (colonogenic cell survival assay) is a more rigorous and direct measurement of cell kill or growth inhibition, and reflects the anti-cancer activity of the test compound. Briefly, tumor cells were cultured in petri dishes in methylcellulose, with or without a phosphonate test compound, and the number of colonies formed during a 5-day incubation period were counted.
The anti-cancer activity of the phosphonate of the following formula: [drawing 16] against human leukemia and lymphoma was also studied using the colonogenic cell survival assay. DHL4, a human B cell lymphoma; HeL, a human erythroid leukemia: JRT3T3, a human T-cell lymphoma; and KG 1α, a human mycloid leukemia, were evaluated for their sensitivity to the cytotoxic activity of the phosphonate of the above formula (compound VIII).

[2] = test system: human colorectal cell line (HT-29); experiment: HT-29 tumor growth in nude mice; assay type: in vivo; settings: orally once a day, 5 mg/Kg body weight; HT-29 subcutaneous in nude mice
Protocol: Studies were also performed with nude mice injected with the human colorectal cell line (HT-29) subcutaneously.

[3] = test system: human melanoma cell line (RPMI-7951); experiment: RPMI-7951 melanoma growth and metastasis in nude mice, topical treatment; assay type: in vivo; settings: topically twice a day, emulsion of 80 mg/mL; RPMI-7951 intradermal in nude mice
Protocol: Similar studies were also performed with a human melanoma cell line (RPMI-7951) grown in nude mice. Mice injected with RPMI-7951 cell line intradermally developed tumors. When the mice were treated topically, twice a day, with an emulsion of 80 mg/mL of the phosphonate compound of the formula shown above (compound VIII), the growth and metastasis of tumors were retarded by approximately 60%.

[4] = body weight and general toxicity in the B-16/F10 melanoma study; assay type: in vivo, C57BL/6 mice; settings: for Body weight (grams): 10 mg/kg IM (5 days/week for 2 weeks)
Protocol: Highly metastatic B-16/F10 melanoma cells were injected into the tail veins of female C57BL/6 mice (1×10^5 cells per mouse). Treatment of one group of mice with the phosphonate compound of the above formula (compound VIII), dissolved into 0.5mL ethanol, 0.5 mL cremaphor and 9.0 mL phosphate buffered saline, began three days after the tumor cells were injected. lntramuscular injections of 0.2 mL of the phosphonate emulsion (10 mg/kg/day) were given for 5 days per week for 2 weeks. A second group of mice were treated with Adriamycin (10 mg/kg given intravenously on days 0, 4 and 8) as a known anti-cancer drug control group, while a third group of mice received the vehicle emulsion alone. The mice were examined every day for general health, behaviour and body weight. Counts of metastatic melanomic tumor colonies found in the lungs, general observations of metastasis to distant organs and examination of organs (liver, kidneys, lungs and spleen) were taken at autopsy 4 weeks after treatment.

Which activity at 1.25 µM ([1]; 1.25 μM) does the source give for `CCCCCCCCCCCCCCCCOCC(CCP(=O)([O-])OCC[N+](C)(C)C)OC` (stereo not drawn) [compound VIII] here?
Its activity at 1.25 µM is 76 ± 7%.

What about the activity at 2.5 µM ([1]; 2.5 μM) of the same compound?
The activity at 2.5 µM was 61 ± 5%.

What about the activity at 5 µM ([1]; 5 μM) of the same compound?
Its activity at 5 µM is 42 ± 6%.

And the activity at 10 µM ([1]; 10 μM)?
The activity at 10 µM was 18 ± 4%.

What about the activity at 20 µM ([1]; 20 μM) of the same compound?
Its activity at 20 µM is 5 ± 1%.

And the activity at 40 µM ([1]; 40 μM)?
The activity at 40 µM was 0%.

What about the “retardation of tumor growth” value [2] of the same compound?
Its value is 30-40%.

And the “retardation of growth and metastasis of tumors” value [3]?
Its value is “approximately 60%”.

And the “Body weight (grams)” value ([4]; Mouse 1, day 0)?
Its value is 19 grams.

What about the “Body weight (grams)” value ([4]; Mouse 1, day 12) of the same compound?
The value was 20 grams.

And the “Body weight (grams)” value ([4]; Mouse 1, day 26)?
The value was 23 grams.

And the “Body weight (grams)” value ([4]; Mouse 2, day 0)?
Its value is 19 grams.

What about the “Body weight (grams)” value ([4]; Mouse 2, day 12) of the same compound?
Its value is 20 grams.

And the “Body weight (grams)” value ([4]; Mouse 2, day 26)?
Its value is 22 grams.

What about the “Body weight (grams)” value ([4]; Mouse 3, day 0) of the same compound?
The value was 19 grams.

What about the “Body weight (grams)” value ([4]; Mouse 3, day 12) of the same compound?
Its value is 21 grams.

What about the “Body weight (grams)” value ([4]; Mouse 3, day 26) of the same compound?
The value was 24 grams.

What about the “Body weight (grams)” value ([4]; Mouse 4, day 0) of the same compound?
Its value is 20 grams.

And the “Body weight (grams)” value ([4]; Mouse 4, day 12)?
Its value is 21 grams.

What about the “Body weight (grams)” value ([4]; Mouse 4, day 26) of the same compound?
Its value is 25 grams.

What about the “Body weight (grams)” value ([4]; Mouse 5, day 0) of the same compound?
Its value is 19 grams.

What about the “Body weight (grams)” value ([4]; Mouse 5, day 12) of the same compound?
The value was 21 grams.

And the “Body weight (grams)” value ([4]; Mouse 5, day 26)?
Its value is 24 grams.

And the “Body weight (grams)” value ([4]; Mouse 6, day 0)?
The value was 20 grams.

What about the “Body weight (grams)” value ([4]; Mouse 6, day 12) of the same compound?
The value was 21 grams.

What about the “Body weight (grams)” value ([4]; Mouse 6, day 26) of the same compound?
Its value is 24 grams.

What about the “toxicity (weight, behaviour and appearance of the mice; in words)” value ([4]; intramuscularly, 10 mg/kg for 2 weeks) of the same compound?
Its value is “not toxic”.
